Among the data in US20090298820A1, “3-SUBSTITUTED-1H-PYRROLO[2,3-B]PYRIDINE AND 3-SUBSTITUTED-1H-PYRROLO[3,2-B]PYRIDINE COMPOUNDS, THEIR USE AS MTOR KINASE AND PI3 KINASE INHIBITORS, AND THEIR SYNTHESES” (Wyeth, priority 2008, published 2009) are IC50 and melting point values, retold here.

One series has as its target mTOR (Homo sapiens, UniProt P42345). Kind of series: mTOR enzyme assay (DELFIA format, His6-S6K substrate). The class given is biochemical.
Another series has as its target PI3Kα (Homo sapiens, UniProt P42336). Kind of series: PI3K-alpha fluorescence polarization assay. In kind it is biochemical. Conditions: read-out: PI3Kα Median IC50. In general terms: Polarisation of emitted light reports the rotation of a fluorescent probe.
The next series addresses PI3Kγ (Homo sapiens, UniProt P48736). The series is described as follows: PI3K-gamma fluorescence polarization assay. The class given is biochemical. Conditions: read-out: PI3Kγ Median IC50.
The mark [1] stands for this setting: read-out: mTOR Kinase Median IC50.

Read-outs that look alike come from different tables or passages of the source.

Usually IC50 stands for the midpoint of a concentration-inhibition curve. As usually defined, the melting point is the temperature, or range, at which the solid turns liquid.

Sequence of PI3Kα (P42336 whole entry, species assumed): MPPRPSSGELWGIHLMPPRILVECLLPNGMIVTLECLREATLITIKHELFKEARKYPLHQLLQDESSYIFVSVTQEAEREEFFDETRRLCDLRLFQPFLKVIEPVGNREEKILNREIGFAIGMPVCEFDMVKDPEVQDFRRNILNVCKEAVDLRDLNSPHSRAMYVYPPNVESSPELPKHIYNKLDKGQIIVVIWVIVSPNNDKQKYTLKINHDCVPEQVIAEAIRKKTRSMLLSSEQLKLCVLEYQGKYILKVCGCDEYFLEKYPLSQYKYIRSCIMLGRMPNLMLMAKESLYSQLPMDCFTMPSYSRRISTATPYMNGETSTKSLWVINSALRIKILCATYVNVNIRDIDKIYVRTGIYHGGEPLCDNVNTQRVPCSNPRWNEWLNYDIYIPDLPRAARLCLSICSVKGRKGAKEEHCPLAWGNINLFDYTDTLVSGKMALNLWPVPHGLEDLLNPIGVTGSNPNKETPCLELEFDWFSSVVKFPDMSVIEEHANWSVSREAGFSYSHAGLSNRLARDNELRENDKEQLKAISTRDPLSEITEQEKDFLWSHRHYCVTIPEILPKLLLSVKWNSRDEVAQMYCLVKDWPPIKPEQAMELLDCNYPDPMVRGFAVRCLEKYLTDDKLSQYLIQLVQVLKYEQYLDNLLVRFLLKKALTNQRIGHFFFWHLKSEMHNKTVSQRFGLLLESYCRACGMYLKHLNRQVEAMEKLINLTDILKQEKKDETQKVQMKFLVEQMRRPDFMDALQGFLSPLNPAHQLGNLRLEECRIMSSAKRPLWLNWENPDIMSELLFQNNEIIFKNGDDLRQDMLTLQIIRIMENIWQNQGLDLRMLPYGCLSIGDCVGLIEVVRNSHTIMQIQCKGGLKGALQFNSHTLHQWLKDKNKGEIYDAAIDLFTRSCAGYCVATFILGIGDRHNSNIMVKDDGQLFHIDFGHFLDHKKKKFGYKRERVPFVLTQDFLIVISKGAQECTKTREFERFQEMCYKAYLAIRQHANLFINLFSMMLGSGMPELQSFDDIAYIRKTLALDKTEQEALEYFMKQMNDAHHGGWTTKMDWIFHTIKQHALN
Sequence of PI3Kα (P27986 whole entry partner, species assumed): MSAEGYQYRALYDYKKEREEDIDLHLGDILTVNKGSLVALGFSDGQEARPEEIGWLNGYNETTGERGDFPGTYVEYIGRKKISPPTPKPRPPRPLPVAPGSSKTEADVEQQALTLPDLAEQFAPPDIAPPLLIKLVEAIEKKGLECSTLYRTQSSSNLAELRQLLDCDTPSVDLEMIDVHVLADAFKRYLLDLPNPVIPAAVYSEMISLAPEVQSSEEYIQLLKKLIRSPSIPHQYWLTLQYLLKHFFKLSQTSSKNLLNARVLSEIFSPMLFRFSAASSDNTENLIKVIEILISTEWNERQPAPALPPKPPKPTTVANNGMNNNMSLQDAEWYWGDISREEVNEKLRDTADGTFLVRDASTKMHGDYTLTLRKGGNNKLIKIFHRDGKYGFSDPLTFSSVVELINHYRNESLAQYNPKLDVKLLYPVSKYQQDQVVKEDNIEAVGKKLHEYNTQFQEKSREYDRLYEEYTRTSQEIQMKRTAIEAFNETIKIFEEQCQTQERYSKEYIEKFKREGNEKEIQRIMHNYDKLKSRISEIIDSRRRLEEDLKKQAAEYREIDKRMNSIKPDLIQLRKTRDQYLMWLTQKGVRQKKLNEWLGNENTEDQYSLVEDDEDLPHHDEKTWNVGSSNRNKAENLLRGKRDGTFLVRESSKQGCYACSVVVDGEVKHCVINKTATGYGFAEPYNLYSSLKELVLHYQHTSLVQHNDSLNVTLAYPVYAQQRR
Sequence of PI3Kγ (P48736 whole entry, species assumed): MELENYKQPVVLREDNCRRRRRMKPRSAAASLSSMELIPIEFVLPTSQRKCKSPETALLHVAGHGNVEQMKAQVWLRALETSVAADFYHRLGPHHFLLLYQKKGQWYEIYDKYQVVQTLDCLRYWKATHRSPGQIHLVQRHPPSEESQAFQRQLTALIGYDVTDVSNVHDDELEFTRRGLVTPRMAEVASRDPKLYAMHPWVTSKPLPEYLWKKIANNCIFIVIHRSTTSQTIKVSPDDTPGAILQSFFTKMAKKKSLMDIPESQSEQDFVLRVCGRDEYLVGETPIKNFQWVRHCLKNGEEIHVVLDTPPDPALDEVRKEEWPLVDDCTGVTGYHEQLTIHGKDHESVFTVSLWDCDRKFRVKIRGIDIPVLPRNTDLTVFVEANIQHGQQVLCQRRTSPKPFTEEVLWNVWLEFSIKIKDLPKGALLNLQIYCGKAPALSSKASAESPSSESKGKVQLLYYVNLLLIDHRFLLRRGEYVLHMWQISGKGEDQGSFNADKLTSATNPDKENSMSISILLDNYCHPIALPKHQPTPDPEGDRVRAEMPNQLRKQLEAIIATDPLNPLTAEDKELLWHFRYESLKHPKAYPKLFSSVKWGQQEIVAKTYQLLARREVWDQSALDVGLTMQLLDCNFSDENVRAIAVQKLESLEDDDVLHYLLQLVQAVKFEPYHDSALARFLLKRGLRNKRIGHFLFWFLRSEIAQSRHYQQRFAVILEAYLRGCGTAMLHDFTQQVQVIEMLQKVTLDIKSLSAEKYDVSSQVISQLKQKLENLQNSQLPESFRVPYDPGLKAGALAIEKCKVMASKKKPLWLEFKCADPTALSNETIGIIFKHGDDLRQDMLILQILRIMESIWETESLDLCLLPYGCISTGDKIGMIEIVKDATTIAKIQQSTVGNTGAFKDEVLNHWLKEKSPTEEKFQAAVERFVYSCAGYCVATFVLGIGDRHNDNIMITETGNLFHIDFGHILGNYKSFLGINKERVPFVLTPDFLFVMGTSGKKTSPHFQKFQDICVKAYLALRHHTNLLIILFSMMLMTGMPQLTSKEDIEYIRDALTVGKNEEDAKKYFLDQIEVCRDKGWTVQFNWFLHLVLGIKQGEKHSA

`Cn1cc(/C=C2\Oc3ccc(NC(=O)Nc4cccnc4)cc3C2=O)c2c(N3CC4CCC3CO4)ccnc21` (stereo not drawn) [Compound 277, 1-[(2Z)-2-{[1-methyl-4-(2-oxa-5-azabicyclo[2.2.2]oct-5-yl)-1H-pyrrolo[2,3-b]pyridin-3-yl]methylidene}-3-oxo-2,3-dihydro-1-benzofuran-5-yl]-3-pyridin-3-ylurea] showed a melting point of 227 to 235 °C. For the same molecule, the IC50 on mTOR (setting [1]) was 0.0075 µM. The IC50 on PI3Kα was 0.296 µM. Also, the IC50 at PI3Kγ was 2.59 µM.
Taken in the same sequence, the figures for `CNC(=O)Nc1ccc2c(c1)C(=O)/C(=C/c1cn(C)c3nccc(N4CC5CCC4CO5)c13)O2` (stereo not drawn) [Compound 279, 1-methyl-3-[(2Z)-2-{[1-methyl-4-(2-oxa-5-azabicyclo[2.2.2]oct-5-yl)-1H-pyrrolo[2,3-b]pyridin-3-yl]methylidene}-3-oxo-2,3-dihydro-1-benzofuran-5-yl]urea] were 197 to 205 °C (dec.), 0.011 µM, 0.128 µM and 0.643 µM.
As for `Cn1cc(/C=C2\Oc3ccc(NC(=O)Nc4cccnc4)cc3C2=O)c2c(N3C4CCC3COC4)ccnc21` [Compound 280, 1-[(2Z)-2-{[1-methyl-4-(3-oxa-8-azabicyclo[3.2.1]oct-8-yl)-1H-pyrrolo[2,3-b]pyridin-3-yl]methylidene}-3-oxo-2,3-dihydro-1-benzofuran-5-yl]-3-pyridin-3-ylurea], the melting point is 250 to 255 °C (dec.). Further, the IC50 against mTOR came out at 0.042 µM. Further, the IC50 on PI3Kα came to 0.179 µM. Besides, the IC50 on PI3Kγ was 0.995 µM.
Consider `CNC(=O)Nc1ccc2c(c1)C(=O)/C(=C/c1cn(C)c3nccc(N4C5CCC4COC5)c13)O2` [Compound 281, 1-methyl-3-[(2Z)-2-{[1-methyl-4-(3-oxa-8-azabicyclo[3.2.1]oct-8-yl)-1H-pyrrolo[2,3-b]pyridin-3-yl]methylidene}-3-oxo-2,3-dihydro-1-benzofuran-5-yl]urea], for which the melting point was 226 to 232 °C (dec.). On mTOR (setting [1]), the IC50 was 0.031 µM. The IC50 on PI3Kα is 0.104 µM. The 50% inhibitory concentration (IC50) on PI3Kγ was 1.71 µM.
The matching figures for `Cn1cc(/C=C2\Oc3ccc(NC(=O)Nc4cccnc4)cc3C2=O)c2c(N3CC4COC(C3)O4)ccnc21` (stereo not drawn) [Compound 282, 1-[(2Z)-2-{[4-(6,8-dioxa-3-azabicyclo[3.2.1]oct-3-yl)-1-methyl-1H-pyrrolo[2,3-b]pyridin-3-yl]methylidene}-3-oxo-2,3-dihydro-1-benzofuran-5-yl]-3-pyridin-3-ylurea]: 224 to 227 °C (dec.), 0.021 µM, 0.288 µM and 0.642 µM.
Consider `Cn1cc(/C=C2\Oc3ccc(NC(=O)Nc4cccnc4)cc3C2=O)c2c(N3CC4CC3CO4)ccnc21` (stereo not drawn) [Compound 283, 1-[(2Z)-2-{[1-methyl-4-(2-oxa-5-azabicyclo[2.2.1]hept-5-yl)-1H-pyrrolo[2,3-b]pyridin-3-yl]methylidene}-3-oxo-2,3-dihydro-1-benzofuran-5-yl]-3-pyridin-3-ylurea], for which the melting point is 218 to 222 °C (dec.). The IC50 on mTOR (setting [1]) was 0.027 µM. Also, the concentration for half-maximal inhibition (IC50) on PI3Kα turned out to be 0.35 µM. Moreover, at PI3Kγ, the IC50 is 0.779 µM.
Taken in the same sequence, the figures for `CNC(=O)Nc1ccc2c(c1)C(=O)/C(=C/c1cn(C)c3nccc(N4CC5CC4CO5)c13)O2` (stereo not drawn) [Compound 284, 1-methyl-3-[(2Z)-2-{[1-methyl-4-(2-oxa-5-azabicyclo[2.2.1]hept-5-yl)-1H-pyrrolo[2,3-b]pyridin-3-yl]methylidene}-3-oxo-2,3-dihydro-1-benzofuran-5-yl]urea] were 242 to 247 °C (dec.), 0.05 µM, 0.275 µM and 0.721 µM.
The matching figures for `Cn1cc(/C=C2\Oc3ccc(NC(=O)Nc4cccnc4)cc3C2=O)c2c(N3CCC(C(=O)N4C5CCC4COC5)CC3)ccnc21` [Compound 292, 1-[(2Z)-2-({1-methyl-4-[4-(3-oxa-8-azabicyclo[3.2.1]oct-8-ylcarbonyl)piperidin-1-yl]-1H-pyrrolo[2,3-b]pyridin-3-yl}methylidene)-3-oxo-2,3-dihydro-1-benzofuran-5-yl]-3-pyridin-3-ylurea]: 197 to 203 °C, 0.0054 µM, 3.48 µM and greater than 10 µM.
`Cn1cc(/C=C2\Oc3ccc(NC(=O)Nc4cccnc4)cc3C2=O)c2c(N3CC4CNCC(C3)O4)ccnc21` [Compound 293, 1-[(2Z)-2-{[1-methyl-4-(9-oxa-3,7-diazabicyclo[3.3.1]non-3-yl)-1H-pyrrolo[2,3-b]pyridin-3-yl]methylidene}-3-oxo-2,3-dihydro-1-benzofuran-5-yl]-3-pyridin-3-ylurea]: the melting point lay in the range of 193 to 200 °C. The IC50 at mTOR (setting [1]) stood at 0.3 µM. Moreover, on PI3Kα, the IC50 was greater than 10 µM. Besides, the IC50 at PI3Kγ is 0.862 µM.
The matching figures for `CCC1(CC)CN(c2ccnc3c2c(/C=C2\Oc4ccc(NC(=O)Nc5cccnc5)cc4C2=O)cn3C)CCO1` [Compound 295, 1-[(2Z)-2-{[4-(2,2-diethylmorpholin-4-yl)-1-methyl-1H-pyrrolo[2,3-b]pyridin-3-yl]methylidene}-3-oxo-2,3-dihydro-1-benzofuran-5-yl]-3-pyridin-3-ylurea]: 225 to 228 °C, 0.0215 µM, 0.721 µM and 1.23 µM.
Taken in the same sequence, the figures for `C[C@@H]1CN(c2ccnc3c2c(/C=C2\Oc4ccc(NC(=O)Nc5cccnc5)cc4C2=O)cn3C)C[C@H](C)O1` [Compound 296, 1-[(2Z)-2-({4-[(2R,6S)-2,6-dimethylmorpholin-4-yl]-1-methyl-1H-pyrrolo[2,3-b]pyridin-3-yl}methylidene)-3-oxo-2,3-dihydro-1-benzofuran-5-yl]-3-pyridin-3-ylurea] were 255 to 260 °C, 0.019 µM, 0.239 µM and 1.16 µM.
Taken in the same sequence, the figures for `COCCC1CN(c2ccnc3c2c(/C=C2\Oc4ccc(NC(=O)Nc5cccnc5)cc4C2=O)cn3C)CCO1` (stereo not drawn) [Compound 297, 1-[(2Z)-2-({4-[2-(2-methoxyethyl)morpholin-4-yl]-1-methyl-1H-pyrrolo[2,3-b]pyridin-3-yl}methylidene)-3-oxo-2,3-dihydro-1-benzofuran-5-yl]-3-pyridin-3-ylurea] were 225 to 260 °C, 0.0255 µM, 0.884 µM and 1.93 µM.
With `Cn1cc(/C=C2\Oc3ccc(NC(=O)Nc4cccnc4)cc3C2=O)c2c(N3CCOC(C)(C)C3)ccnc21` [Compound 301, 1-[(2Z)-2-{[4-(2,2-dimethylmorpholin-4-yl)-1-methyl-1H-pyrrolo[2,3-b]pyridin-3-yl]methylidene}-3-oxo-2,3-dihydro-1-benzofuran-5-yl]-3-pyridin-3-ylurea], the melting point lay within 222 to 226 °C. Besides, the IC50 on mTOR (setting [1]) is 0.013 µM. At PI3Kα, the concentration for half-maximal inhibition (IC50) came out at 0.566 µM. At PI3Kγ, the IC50 amounted to 1.11 µM.
Taken in the same sequence, the figures for `C[C@@H]1CN(C(=O)C2CCN(c3ccnc4c3c(/C=C3\Oc5cccc(O)c5C3=O)cn4C)CC2)C[C@H](C)O1` [Compound 302, (2Z)-2-{[4-(4-{[(2R,6S)-2,6-dimethylmorpholin-4-yl]carbonyl}piperidin-1-yl)-1-methyl-1H-pyrrolo[2,3-b]pyridin-3-yl]methylidene}-4-hydroxy-1-benzofuran-3(2H)-one] were 162 to 166 °C, 0.0032 µM, 0.223 µM and 0.396 µM.
In the case of `C[C@@H]1CN(C(=O)c2ccc(-c3ccnc4c3c(/C=C3\Oc5cccc(O)c5C3=O)cn4C)cc2)C[C@H](C)O1` [Compound 303, (2Z)-2-{[4-(4-{[(2R,6S)-2,6-dimethylmorpholin-4-yl]carbonyl}phenyl)-1-methyl-1H-pyrrolo[2,3-b]pyridin-3-yl]methylidene}-4-hydroxy-1-benzofuran-3(2H)-one], the melting point fell in the range of 262 to 270 °C. For the same molecule, the IC50 on mTOR (setting [1]) came out at 0.0023 µM. Besides, on PI3Kα, the IC50 stood at 0.075 µM. In addition, on PI3Kγ, the IC50 turned out to be 0.098 µM.
The matching figures for `COCCN1CCN(C(=O)c2ccc(-c3ccnc4c3c(/C=C3\Oc5cccc(O)c5C3=O)cn4C)cc2)CC1` [Compound 304, (2Z)-4-hydroxy-2-{[4-(4-{[4-(2-methoxyethyl)piperazin-1-yl]carbonyl}phenyl)-1-methyl-1H-pyrrolo[2,3-b]pyridin-3-yl]methylidene}-1-benzofuran-3(2H)-one]: 118 to 122 °C, 0.0015 µM, 0.109 µM and 0.312 µM.
The matching figures for `COCCC1CN(C(=O)c2ccc(-c3ccnc4c3c(/C=C3\Oc5cccc(O)c5C3=O)cn4C)cc2)CCO1` (stereo not drawn) [Compound 305, (2Z)-4-hydroxy-2-{[4-(4-{[2-(2-methoxyethyl)morpholin-4-yl]carbonyl}phenyl)-1-methyl-1H-pyrrolo[2,3-b]pyridin-3-yl]methylidene}-1-benzofuran-3(2H)-one]: 154 to 160 °C, 0.001 µM, 0.065 µM and 0.038 µM.
The matching figures for `Cn1cc(/C=C2\Oc3cccc(O)c3C2=O)c2c(N3CCC(C(=O)N4CC5CCC(C4)O5)CC3)ccnc21` [Compound 306, (2Z)-4-hydroxy-2-({1-methyl-4-[4-(8-oxa-3-azabicyclo[3.2.1]oct-3-ylcarbonyl)piperidin-1-yl]-1H-pyrrolo[2,3-b]pyridin-3-yl}methylidene)-1-benzofuran-3(2H)-one]: 264 to 268 °C, 0.002 µM, 0.051 µM and 0.131 µM.
